Data as given in patent publication US5070210A, “Novel ketenimines as intermediates for insecticides” (ICI Americas Inc., priority 1990, dated 1991).

Key:
Assay type in all cases: in vivo
[1] = tested on: Cabbage Looper [Trichoplusia ni (Hubner)]; assay: Cabbage looper insecticidal test; conditions: second-instar larvae, percent in solution; 3-5 days
Procedure, shortened: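 Leaf dip, squash cotyledons, 50-50 acetone-water, top dose 0.1% and lower. 5 second-instar larvae/dish, moist filter paper, high-humidity chamber. Mortality at 3-5 d; LC50 (% in solution) from dosage-mortality curves.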

[2] = tested on: Aster Leafhopper [Macrosteles fascifrens (Stal)]; assay: Aster leafhopper insecticidal test; conditions: adults/nymphs, percent in solution; 48 hours
Procedure, shortened: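 LC50 values, given as percent of test compound in the dip solution, were derived from dosage-mortality curves over concentrations from 0.05% downward. Mortality was counted 48 hours after ten leafhopper adults/nymphs were enclosed on treated seedlings. The seedlings were oats, about 10 cm tall, briefly dipped in 50-50 acetone-water.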

[3] = tested on: Maize weevil [Sitophilus Zeamais (Motschulsky)]; assay: Maize weevil insecticidal test; conditions: adult weevils, percent in solution; 48 hours
Procedure, shortened: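 LC50, in percent of compound in solution, was derived from dosage-mortality curves after 48 h at about 25 °C. Ten adult weevils per container fed on four corn seeds briefly immersed in acetone:water (50:50) solutions of up to 0.01% and dried.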

[4] = tested on: Housefly [Musca domestica]; assay: Housefly insecticidal test; conditions: μg per 25 female flies; mortality after 48 hours
Procedure, shortened: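 LC50, as μg compound per 25 female flies, comes from dosage-mortality curves with doses from 100 μg downward. Residues were made by evaporating acetone plus 0.01% peanut oil in dishes, onto which 1-2-day-old females were caged; deaths were counted after 48 hours.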

[5] = tested on: Rice water weevil [Lissorhoptrus oryzophilus (Kuschel)]; assay: Rice water weevil insecticidal test; conditions: topical, μg per weevil; 48 hours
Method: The compounds in Tables 1 and 2 above were tested for insecticidal activity using the following testing procedures. LC50 values, based on the results of these tests and calculated according to dosage-mortality curves, are expressed in Table 3.
Rice water weevil [Lissorhoptrus oryzophilus (Kuschel)]:
Test compounds were diluted in acetone. Droplets (1 μl) of test solutions were applied to the ventral abdomens of ten female adult weevils. The treated weevils were placed in containers with wet cotton balls and rice foliage. The containers were covered and kept at a temperature of about 25° C. Mortality was recorded after 48 hours. Test concentrations ranged from […] or 2.5 μg per weevil down to that at which 50% mortality occurred. The LC50 values are expressed below in Table 3 under the heading "RWW" in terms of μg of test compound per weevil.

[6] = tested on: Tobacco Budworm [Heliothis virescens (Fabricius)] eggs; assay: Tobacco budworm egg test; conditions: 2-day old eggs, percent in solution
Procedure, shortened: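 LC50 values (percent test compound in the dip solution) were calculated from dosage-mortality curves. Egg patches, 2 days old, were dipped in acetone solutions at concentrations from 0.1% downward and held at 78° F on rearing medium until control larvae hatched and fed.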

[7] = tested on: Tobacco Budworm [Heliothis virescens (Fabricius)] larvae; assay: Tobacco budworm contact test; conditions: second-instar larvae, percent in solution, 5 days
Procedure, shortened: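 Cotton cotyledons dipped 2–3 s in compound in 50-50 acetone-water, dried, then infested with 5 second-instar larvae and held 5 days at high humidity. Mortality scored; LC50 from dosage-mortality curves, expressed as percent compound in solution, concentrations from 0.1% downward.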

[8] = tested on: Beet Armyworm (Spodoptera exigua); assay: Beet armyworm insecticidal test; conditions: second-instar larvae, percent in solution; five days
Procedure, shortened: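 Five second-instar larvae per dish fed on dried sugar beet leaves previously dipped 2–3 s in acetone-water (1:1) test solutions up to 0.1%. Kept at high humidity, with deaths counted after five days; LC50 as % in solution via dosage-mortality curves.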

SMILES	LC50, CL [1]	LC50, LH [2]	LC50, MW [3]	LC50, HF [4]	LC50, RWW [5]	LC50, TBW, E (TBW-E) [6]	LC50, TBW, C (TBW-C) [7]	LC50, BAW [8]
CC(C)C(=Nc1ccc(C(F)(F)F)cc1)OCc1cccc(Oc2ccccc2)c1 [Compound 68]	0.006%	0.0001%	> 0.01%	37 µg	0.15 µg	0.009%	–	–
CCC(=Nc1ccc(F)c(Cl)c1)OCc1cccc(Oc2ccccc2)c1 [Compound 85]	0.004%	0.003%	> 0.01%	7 µg	> 2.5 µg	> 0.1%	–	–
CC(C)C(=Nc1ccc(F)c(Cl)c1)OCc1cccc(Oc2cccc(F)c2)c1 [Compound 125]	0.0007%	> 0.05%	> 0.01%	12 µg	> 2.5 µg	0.025%	–	–
CC(C)C(=Nc1ccc(F)c(Cl)c1)OCc1cccc(Oc2ccc(F)cc2F)c1 [Compound 191]	0.00023%	> 0.05%	0.004%	29 µg	> 2.5 µg	0.04%	–	–
CC(C)C(=Nc1c(F)c(F)c(F)c(F)c1F)OCc1cccc(Oc2ccc(F)cc2)c1 [Compound 198]	0.0005%	0.05%	0.003%	52 µg	> 2.5 µg	> 0.1%	–	–
CC(C)C(=Nc1ccc(Cl)c(Cl)c1)OCc1ccc(F)c(Oc2ccc(F)cc2)c1 [Compound 289]	0.00007%	0.0003%	> 0.01%	10 µg	0.082 µg	0.006%	–	–
CC(C)C(=Nc1ccc(F)c(F)c1)OCc1ccc(F)c(Oc2ccc(Cl)cc2)c1 [Compound 295]	0.00004%	0.0001%	0.0053%	7.8 µg	> 2.5 µg	0.01%	0.0005%	–
CC(C)C(=Nc1ccc(Cl)c(Cl)c1)OCc1ccc(F)c(Oc2ccc(Cl)cc2)c1 [Compound 296]	0.00025%	0.0003%	–	38 µg	0.14 µg	0.025%	0.00045%	–
CC(C)C(=Nc1ccc(F)c(Br)c1)OCc1ccc(F)c(Oc2ccc(Cl)cc2)c1 [Compound 298]	0.0001%	0.0001%	0.008%	13 µg	> 2.5 µg	0.015%	0.0008%	–
CC(C)C(=Nc1ccc(F)c(C(F)(F)F)c1)OCc1ccc(F)c(Oc2ccccc2)c1 [Compound 300]	0.0003%	0.00002%	0.01%	14 µg	0.075 µg	0.024%	0.001%	–
CC(C)C(=Nc1ccc(F)c(Cl)c1F)OCc1ccc(F)c(Oc2ccc(F)cc2)c1 [Compound 330]	0.00012%	< 0.05%	0.001%	5 µg	0.06 µg	0.037%	0.00035%	–
CC(C)C(=Nc1ccc(OC(F)(F)F)cc1)OCc1ccc(F)c(Oc2ccccc2)c1 [Compound 338]	0.000065%	–	0.0053%	26 µg	0.044 µg	0.01%	0.00037%	–
CC(C)C(=Nc1ccc(Br)c(Cl)c1)OCc1ccc(F)c(Oc2ccc(F)cc2)c1 [Compound 382]	0.00029%	–	> 0.01%	< 100 µg	> 2.5 µg	0.027%	–	–
CC(C)C(=Nc1cccc(Br)c1)OCc1ccc(F)c(Oc2ccccc2)c1 [Compound 387]	0.0012%	–	> 0.01%	< 100 µg	> 2.5 µg	0.05%	–	–
CC(C)C(=Nc1ccc(Cl)cc1)OCc1ccc(F)c(Oc2ccc(Cl)cc2)c1 [Compound 391]	0.00029%	–	> 0.01%	< 100 µg	> 2.5 µg	0.035%	–	–
C=C(C)C(=Nc1ccc(C(F)(F)F)cc1)OCc1ccc(F)c(Oc2ccccc2)c1 [Compound 431]	0.00017%	–	0.0037%	9.8 µg	0.084 µg	0.025%	–	–
CC(C)C(=Nc1ccc(C(F)(F)F)c(Br)c1)OCc1ccc(F)c(Oc2ccc(Cl)cc2)c1 [Compound 433]	0.00017%	–	0.005%	< 100 µg	0.078 µg	0.02%	–	–
CC(C)C(=Nc1ccc(F)c(Cl)c1F)OCc1ccc(F)c(Oc2ccccc2)c1 [Compound 451]	0.0001%	0.0002%	0.0051%	3.6 µg	0.065 µg	> 0.1%	0.00025%	–
CC(C)C(=Nc1ccc(Cl)c(OCC(F)(F)F)c1)OCc1ccc(F)c(Oc2ccc(Cl)cc2)c1 [Compound 452]	0.0017%	–	> 0.01%	> 100 µg	0.1 µg	< 0.1%	–	–
CC(C)C(=Nc1ccc(F)c(Cl)c1)OCc1cccc(Oc2ccc(F)cc2)n1 [Compound 461]	0.00008%	–	0.0075%	6 µg	> 2.5 µg	0.01%	–	0.0035%
